Assay results taken from paper PMC2568824, “Dibutyltin Disrupts Glucocorticoid Receptor Function and Impairs Glucocorticoid-Induced Suppression of Cytokine Production” (PLoS ONE, 2008).

Experiments:
[1] = target: T1, glucocorticoid receptor (GR-α) (Homo sapiens, UniProt P04150); test: inhibition of [3H]-dexamethasone binding in intact GR-transfected HEK-293 cells, overnight DBT preincubation ([…] for […] inhibition without preincubation); also transactivation reporter; assay type: cell-based; parameters: gene NR3C1; human GR-α, transiently expressed in HEK-293 cells
T1 sequence (P04150 1-777): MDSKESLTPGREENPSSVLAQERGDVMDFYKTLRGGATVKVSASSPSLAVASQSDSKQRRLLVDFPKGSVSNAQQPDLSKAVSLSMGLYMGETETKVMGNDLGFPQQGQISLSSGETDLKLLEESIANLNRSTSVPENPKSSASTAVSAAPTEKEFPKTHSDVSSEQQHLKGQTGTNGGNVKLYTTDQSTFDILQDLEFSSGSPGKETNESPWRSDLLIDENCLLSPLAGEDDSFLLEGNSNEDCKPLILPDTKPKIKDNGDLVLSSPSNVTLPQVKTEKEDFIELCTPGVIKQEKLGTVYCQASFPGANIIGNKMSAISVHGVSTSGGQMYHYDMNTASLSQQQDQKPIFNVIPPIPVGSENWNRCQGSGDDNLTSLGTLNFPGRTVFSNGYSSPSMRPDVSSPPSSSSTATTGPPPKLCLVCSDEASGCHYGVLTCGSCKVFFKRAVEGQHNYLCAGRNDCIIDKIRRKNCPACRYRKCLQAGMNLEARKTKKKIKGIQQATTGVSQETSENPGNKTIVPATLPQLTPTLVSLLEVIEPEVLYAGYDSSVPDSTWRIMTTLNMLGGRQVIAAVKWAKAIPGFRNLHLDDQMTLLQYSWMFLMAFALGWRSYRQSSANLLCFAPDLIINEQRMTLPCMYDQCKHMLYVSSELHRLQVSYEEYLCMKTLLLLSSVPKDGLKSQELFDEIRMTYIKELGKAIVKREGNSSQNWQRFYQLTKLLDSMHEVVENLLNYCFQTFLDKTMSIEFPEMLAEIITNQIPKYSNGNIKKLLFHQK

[2] = target: T1, glucocorticoid receptor (GR-α); parameters: gene NR3C1

| Molecule | IC50 [1] [nM] | radioligand binding (10 nM [3H]-dexamethasone) and displacement by unlabeled dex [2] |
| --- | --- | --- |
| dibutyltin [DBT] | ~50 |  |
| C[C@@H]1C[C@H]2[C@@H]3CCC4=CC(=O)C=C[C@]4(C)[C@@]3(F)[C@@H](O)C[C@]2(C)[C@@]1(O)C(=O)CO [Dex, dexamethasone] |  | Addition of unlabeled dexamethasone revealed a typical displacement pattern of tritiated dexamethasone in the presence or absence of DBT |
